Measured values published in ChEMBL document CHEMBL1909046, “DrugMatrix in vitro pharmacology data”.
pIC50: −log10 of the molar value.

Assays:
Melanocortin receptor 4 = Melanocortin receptor 4 (Homo sapiens, UniProt P32245); assay type: cell membranes, Membrane; details: hek293; further: in other assays of this panel Not Active means under 50% inhibition at 10 µM
[1] = biological target: T1, Receptor-type tyrosine-protein phosphatase C (Homo sapiens, UniProt P08575); set-up: species or system Escherichia coli;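 further: inhibition of CD45 enzyme activity measured using DiFMUP as substrate; in other assays of this panel Not Active means under 50% inhibition at 10 µM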
T1 sequence (P08575 whole entry): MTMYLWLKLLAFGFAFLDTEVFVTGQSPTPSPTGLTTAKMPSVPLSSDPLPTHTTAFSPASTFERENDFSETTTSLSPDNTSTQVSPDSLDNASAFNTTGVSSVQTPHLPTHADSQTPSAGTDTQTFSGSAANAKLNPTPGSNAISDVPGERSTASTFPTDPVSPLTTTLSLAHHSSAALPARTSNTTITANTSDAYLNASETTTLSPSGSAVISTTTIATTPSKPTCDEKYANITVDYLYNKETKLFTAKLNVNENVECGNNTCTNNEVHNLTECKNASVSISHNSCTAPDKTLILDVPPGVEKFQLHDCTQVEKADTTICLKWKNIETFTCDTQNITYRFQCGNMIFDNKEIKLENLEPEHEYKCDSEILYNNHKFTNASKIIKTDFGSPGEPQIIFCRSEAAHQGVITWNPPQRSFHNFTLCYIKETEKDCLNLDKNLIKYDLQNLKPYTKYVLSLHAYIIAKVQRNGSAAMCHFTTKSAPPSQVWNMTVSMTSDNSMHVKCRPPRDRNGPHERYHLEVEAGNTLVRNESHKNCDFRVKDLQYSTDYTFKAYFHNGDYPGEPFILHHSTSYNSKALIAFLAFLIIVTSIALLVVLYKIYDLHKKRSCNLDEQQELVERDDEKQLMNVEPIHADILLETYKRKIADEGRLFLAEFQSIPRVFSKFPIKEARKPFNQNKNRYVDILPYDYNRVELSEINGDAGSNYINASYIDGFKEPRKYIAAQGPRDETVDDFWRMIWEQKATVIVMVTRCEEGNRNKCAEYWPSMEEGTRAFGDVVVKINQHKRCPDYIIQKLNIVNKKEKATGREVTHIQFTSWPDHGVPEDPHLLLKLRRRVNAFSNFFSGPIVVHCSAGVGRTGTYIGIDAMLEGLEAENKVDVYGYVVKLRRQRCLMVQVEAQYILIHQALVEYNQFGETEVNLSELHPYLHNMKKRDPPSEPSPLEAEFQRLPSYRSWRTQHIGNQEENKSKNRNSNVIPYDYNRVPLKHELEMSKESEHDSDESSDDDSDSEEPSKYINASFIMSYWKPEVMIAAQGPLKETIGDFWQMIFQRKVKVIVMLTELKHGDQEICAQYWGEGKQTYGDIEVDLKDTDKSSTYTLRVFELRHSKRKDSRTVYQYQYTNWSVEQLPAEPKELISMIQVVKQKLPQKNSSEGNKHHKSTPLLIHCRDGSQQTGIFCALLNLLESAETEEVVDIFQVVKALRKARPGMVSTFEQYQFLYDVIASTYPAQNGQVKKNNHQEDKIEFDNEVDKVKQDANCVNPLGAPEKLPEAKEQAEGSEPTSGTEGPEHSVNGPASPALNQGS

[2] = DRUGMATRIX: Phorbol Ester radioligand binding (ligand: [3H] PDBu); assay type: cell membranes, Mus musculus, ICR, Brain, Membrane; details: Not Active = under 50% inhibition at 10 µM
[3] = biological target: Sodium-dependent dopamine transporter (Homo sapiens, UniProt Q01959); experiment: DRUGMATRIX: Dopamine Transporter radioligand binding (ligand: [125I] RTI-55); assay type: cell membranes, CHO-K1, Membrane; details: cho-k1; Not Active = under 50% inhibition at 10 µM
Thromboxane-A synthase = biological target: T2, Thromboxane-A synthase (Homo sapiens, UniProt P24557); experiment: biochemical; assay type: tissue-based, Platelet; details: for IC50: platelet; for pIC50: read-out: IC50;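 on all read-outs here: enzyme inhibition assay with PGH2 supplied as substrate; in other assays of this panel Not Active means under 50% inhibition at 10 µM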
T2 sequence (P24557 whole entry): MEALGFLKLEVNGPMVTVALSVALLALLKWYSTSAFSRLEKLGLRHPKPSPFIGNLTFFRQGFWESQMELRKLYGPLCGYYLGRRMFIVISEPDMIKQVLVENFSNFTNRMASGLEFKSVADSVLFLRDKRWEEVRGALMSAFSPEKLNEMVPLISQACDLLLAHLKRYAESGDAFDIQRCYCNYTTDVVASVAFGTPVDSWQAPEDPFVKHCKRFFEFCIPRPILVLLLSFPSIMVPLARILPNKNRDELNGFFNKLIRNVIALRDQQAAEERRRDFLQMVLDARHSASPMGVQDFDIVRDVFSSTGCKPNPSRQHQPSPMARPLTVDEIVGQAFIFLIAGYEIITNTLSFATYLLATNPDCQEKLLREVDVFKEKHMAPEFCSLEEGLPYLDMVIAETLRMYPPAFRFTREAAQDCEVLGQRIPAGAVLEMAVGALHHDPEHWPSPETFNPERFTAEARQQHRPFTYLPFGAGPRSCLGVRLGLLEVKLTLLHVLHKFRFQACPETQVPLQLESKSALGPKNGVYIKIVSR

[4] = biological target: T3, Alpha-1A adrenergic receptor (Rattus norvegicus, UniProt P43140); experiment: DRUGMATRIX: Alpha-1A adrenergic receptor radioligand binding (ligand: prazosin); assay type: cell membranes, Wistar, Submaxillary gland, Membrane; details: Not Active = under 50% inhibition at 10 µM
T3 sequence (P43140 whole entry): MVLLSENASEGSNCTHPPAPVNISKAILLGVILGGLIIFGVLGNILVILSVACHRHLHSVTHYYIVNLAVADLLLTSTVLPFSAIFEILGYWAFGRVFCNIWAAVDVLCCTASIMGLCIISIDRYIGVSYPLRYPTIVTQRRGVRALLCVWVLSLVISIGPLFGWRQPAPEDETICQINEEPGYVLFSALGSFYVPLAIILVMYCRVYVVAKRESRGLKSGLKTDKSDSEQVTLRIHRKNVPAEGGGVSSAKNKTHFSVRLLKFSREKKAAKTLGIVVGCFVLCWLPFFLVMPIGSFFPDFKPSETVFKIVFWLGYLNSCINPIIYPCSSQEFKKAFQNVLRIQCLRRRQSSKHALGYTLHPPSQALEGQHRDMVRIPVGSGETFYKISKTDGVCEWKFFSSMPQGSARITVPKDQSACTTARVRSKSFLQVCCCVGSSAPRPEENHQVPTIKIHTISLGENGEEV

Chain of Melanocortin receptor 4 (P32245 whole entry): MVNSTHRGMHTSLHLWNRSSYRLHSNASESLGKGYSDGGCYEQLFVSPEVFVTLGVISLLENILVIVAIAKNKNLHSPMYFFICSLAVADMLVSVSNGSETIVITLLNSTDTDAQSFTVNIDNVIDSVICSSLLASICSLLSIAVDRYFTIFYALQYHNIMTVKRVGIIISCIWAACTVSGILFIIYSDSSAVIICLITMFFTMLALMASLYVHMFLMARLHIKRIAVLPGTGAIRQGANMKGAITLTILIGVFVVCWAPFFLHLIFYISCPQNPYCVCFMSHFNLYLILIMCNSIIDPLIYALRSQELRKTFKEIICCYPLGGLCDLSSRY
Chain of Sodium-dependent dopamine transporter (Q01959 whole entry): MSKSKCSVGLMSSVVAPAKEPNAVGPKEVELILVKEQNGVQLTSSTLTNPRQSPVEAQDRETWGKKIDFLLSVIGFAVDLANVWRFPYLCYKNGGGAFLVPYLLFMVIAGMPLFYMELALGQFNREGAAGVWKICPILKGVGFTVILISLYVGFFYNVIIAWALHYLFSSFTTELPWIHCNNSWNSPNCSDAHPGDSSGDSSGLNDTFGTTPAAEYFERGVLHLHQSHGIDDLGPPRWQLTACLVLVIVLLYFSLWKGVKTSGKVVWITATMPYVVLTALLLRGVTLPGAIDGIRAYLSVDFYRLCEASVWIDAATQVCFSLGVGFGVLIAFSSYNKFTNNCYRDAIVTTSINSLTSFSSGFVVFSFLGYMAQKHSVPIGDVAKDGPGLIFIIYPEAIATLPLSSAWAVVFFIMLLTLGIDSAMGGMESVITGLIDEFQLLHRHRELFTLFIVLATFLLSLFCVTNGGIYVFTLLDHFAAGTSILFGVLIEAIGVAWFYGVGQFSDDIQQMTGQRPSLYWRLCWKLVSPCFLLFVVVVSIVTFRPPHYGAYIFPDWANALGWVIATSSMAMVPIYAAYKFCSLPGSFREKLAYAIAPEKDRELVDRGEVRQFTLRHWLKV

Row | SMILES | IC50 (Melanocortin receptor 4) | IC50 [1] | IC50 [2] | Ki [2] | IC50 [3] | IC50 (Thromboxane-A synthase) | IC50 [4] | pIC50 (Thromboxane-A synthase)
1 | Cc1ccc(Cl)c(Nc2ccccc2C(=O)O)c1Cl [MECLOFENAMIC ACID] | Not Active | Not Active | Not Active | Not Active | Not Active | Not Active | Not Active | 
2 | CO[C@@H]1[C@@H](OC)[C@H](C)[C@@](O)(CC(=O)O)O[C@H]1[C@H](C)[C@H]1O[C@@]2(CC[C@@](C)([C@H]3CC[C@@](C)([C@@H]4O[C@@H]([C@H]5O[C@](C)(O)[C@H](C)C[C@@H]5C)C[C@@H]4O[C@@H]4C[C@H](OC)[C@@H](OC)[C@H](C)O4)O3)O2)C[C@H](O)[C@H]1C.N [MADURAMICIN] | Not Active | Not Active | Not Active | Not Active | Not Active | Not Active | Not Active | 
3 | CCC(C)(C)C(=O)O[C@H]1C[C@@H](C)C=C2C=C[C@H](C)[C@H](CC[C@@H]3C[C@@H](O)CC(=O)O3)[C@H]21 [SIMVASTATIN] | Not Active | Not Active | Not Active | Not Active | Not Active | Not Active | Not Active | 
4 | C#C[C@]1(O)CC[C@H]2[C@@H]3[C@H](C)CC4=C(CCC(=O)C4)[C@H]3CC[C@@]21C [TIBOLONE] | Not Active | Not Active | Not Active | Not Active | Not Active | Not Active | Not Active | 
5 | Cc1nnc(NS(=O)(=O)c2ccc(N)cc2)s1 [SULFAMETHIZOLE] | Not Active | Not Active | Not Active | Not Active | Not Active | Not Active | Not Active | 
6 | C[C@]12CCC(=O)C[C@@H]1CC[C@@H]1[C@@H]2CC[C@]2(C)[C@@H](O)CC[C@@H]12 [STANOLONE] | Not Active | Not Active | Not Active | Not Active | Not Active | Not Active | Not Active | 
7 | CO[C@@]12[C@H](COC(N)=O)C3=C(C(=O)C(C)=C(N)C3=O)N1C[C@@H]1N[C@@H]12 [MITOMYCIN] | Not Active | Not Active | Not Active | Not Active | Not Active | Not Active | Not Active | 
8 | Cc1[nH]c(=O)c(C#N)cc1-c1ccncc1 [MILRINONE] | Not Active | Not Active | Not Active | Not Active | Not Active | Not Active | Not Active | 
9 | CC(Cl)(Cl)Cl [TRICHLOROETHANE] | Not Active | Not Active | Not Active | Not Active | Not Active | Not Active | Not Active | 
10 | CC[C@H](C)C(=O)O[C@H]1CCC=C2C=C[C@H](C)[C@H](CC[C@@H]3C[C@@H](O)CC(=O)O3)[C@H]21 [MEVASTATIN] | Not Active | Not Active | Not Active | Not Active | Not Active | Not Active | Not Active | 
11 | CC(=O)O[C@]1(C(C)=O)CC[C@H]2[C@@H]3C[C@H](C)C4=CC(=O)CC[C@]4(C)[C@H]3CC[C@@]21C [MEDROXYPROGESTERONE ACETATE] | Not Active | Not Active | Not Active | Not Active | Not Active | Not Active | Not Active | 
12 | CC[C@@]1(O)C(=O)OCc2c1cc1n(c2=O)Cc2cc3c(CN(C)C)c(O)ccc3nc2-1 [TOPOTECAN] | Not Active | Not Active | Not Active | Not Active | Not Active | Not Active | Not Active | 
13 | CC#C[C@]1(O)CC[C@H]2[C@@H]3CCC4=CC(=O)CCC4=C3[C@@H](c3ccc(N(C)C)cc3)C[C@@]21C [MIFEPRISTONE] | Not Active | Not Active | Not Active | Not Active | Not Active | Not Active | Not Active | 
14 | Cc1cnc(NC(=O)C2=C(O)c3ccccc3S(=O)(=O)N2C)s1 [MELOXICAM] | Not Active | Not Active | Not Active | Not Active | Not Active | Not Active | Not Active | 
15 | O=[As][O-].[Na+] [SODIUM ARSENITE] | Not Active | Not Active | Not Active | Not Active | Not Active | Not Active | Not Active | 
16 | Cc1cccc(C)c1NC(=O)C(C)N (configuration not stated) [TOCAINIDE] | Not Active | Not Active | Not Active | Not Active | Not Active | Not Active | Not Active | 
17 | COC(=O)Nc1nc2ccc(C(=O)c3ccccc3)cc2[nH]1 [MEBENDAZOLE] | Not Active | Not Active | Not Active | Not Active | Not Active | Not Active | Not Active | 
18 | CCOC(=O)C1=C(C)NC(C)=C(C(=O)OCC)C1c1ccccc1/C=C/C(=O)OC(C)(C)C [LACIDIPINE] | Not Active | Not Active | Not Active | Not Active | Not Active |  | Not Active | 5.77
19 | CC[C@H](C)[C@@H](CO[C@@H](Cc1ccccc1)C(=O)N[C@@H](CCS(C)(=O)=O)C(=O)OC(C)C)NC[C@@H](N)CS | Not Active | Not Active | Not Active | Not Active | Not Active | Not Active | Not Active | 
20 | O=C(c1ccccc1)c1ccc2n1CCC2C(=O)O (configuration not stated) [KETOROLAC] | Not Active | Not Active | Not Active | Not Active | Not Active | Not Active | Not Active | 
21 | O=C(O)c1cc(/N=N/c2ccc(S(=O)(=O)Nc3ccccn3)cc2)ccc1O [SULFASALAZINE] | Not Active | Not Active | Not Active | Not Active | Not Active |  | Not Active | 4.71
